Data published in patent publication US8252047B2, “Drug-delivery endovascular stent and method for treating restenosis” (Biosensors International Group, Ltd., priority 2004, dated 2012).
One block for each molecule: values may come before it.

Experiments:
[1] = physchem
Description: The coating may also include binders or small molecules designed to optimize the tissue solubility of the drug coating, to produce a desired cohesiveness in the drug coating, and a desired drug release rate in the implanted stent.

[2] = in vitro drug elution in PBS from platinum-coated stent; assay type: physicochemical; conditions: 252 μg on platinum-plated anchoring layer stent, by day 34
Description: FIG. 7 is an elution profile in PBS of the drug Biolimus A-9 from the stent of the invention as measured by the total amount of drug released in μg over cumulative time in hours.
It will be appreciated that the actual rate of drug release in vivo will be much greater, e.g., the bulk of the drug released will be released within the first few days following implantation, due to the greater hydrophobicity of the cell-membrane environment in vivo. However, the in vitro release in a purely aqueous medium provides a useful standard for formulating the drug coating, to achieve an effective drug release rate in vivo and also to achieve, a desired drug-layer cohesiveness.

[3] = tested on: restenosis in porcine coronary arteries; experiment: swine restenosis animal model, stent implantation; assay type: in vivo; conditions: 28 days after implantation, platinum anchoring layer stent with vs without drug coating
Description: Briefly, studies conducted in support of the present invention compared the extent of restenosis at 28 days following stent implantation, in metal stents having an electroplated platinum anchoring layer, with or without a drug coating of Biolimus A-9.

[4] = cited from earlier work

chromatographic logP [1]: 4.68
Compound: CC(=O)O[C@H]1C(=O)[C@@]2(C)[C@H]([C@H](OC(=O)c3ccccc3)[C@]3(O)C[C@H](OC(=O)[C@H](O)[C@@H](NC(=O)c4ccccc4)c4ccccc4)C(C)=C1C3(C)C)[C@]1(OC(C)=O)CO[C@@H]1C[C@@H]2O [paclitaxel]

log P (log partition coefficient between octanol and water) [1]: 6.70
Compound: CO[C@H]1C[C@@H]2CC[C@@H](C)[C@@](O)(O2)C(=O)C(=O)N2CCCC[C@H]2C(=O)O[C@H]([C@H](C)C[C@@H]2CC[C@@H](OCCO)[C@H](OC)C2)CC(=O)[C@H](C)/C=C(\C)[C@@H](O)[C@@H](OC)C(=O)[C@H](C)C[C@H](C)/C=C/C=C/C=C/1C [everolimus]

The remaining lines, values behind:

Compound: CO[C@H]1C[C@@H]2CC[C@@H](C)[C@@](O)(O2)C(=O)C(=O)N2CCCC[C@H]2C(=O)O[C@H]([C@H](C)C[C@@H]2CC[C@@H](O)[C@H](OC)C2)CC(=O)[C@H](C)/C=C(\C)[C@@H](O)[C@@H](OC)C(=O)[C@H](C)C[C@H](C)/C=C/C=C/C=C/1C [rapamycin]
log P (log partition coefficient between octanol and water) ([1]; modified HPLC method (Lombardo et al.)): 6.51

Compound: CCOCCO[C@@H]1CC[C@@H](C[C@@H](C)[C@@H]2CC(=O)[C@H](C)/C=C(\C)[C@@H](O)[C@@H](OC)C(=O)[C@H](C)C[C@H](C)/C=C/C=C/C=C(\C)[C@@H](OC)C[C@@H]3CC[C@@H](C)[C@@](O)(O3)C(=O)C(=O)N3CCCC[C@H]3C(=O)O2)C[C@H]1OC [Biolimus A-9]
log P (log partition coefficient between octanol and water) [1]: 7.63
fraction of drug eluted from the stent [2]: about one-third
extent of restenosis [3]: significantly reduced the extent of restenosis

Compound: CCc1ccc(CCOc2ccc(CC3SC(=O)NC3=O)cc2)nc1 (stereo not drawn) [pioglitazone]
solubility in acetone ([4]; acetone): slightly soluble
solubility in ethanol ([4]; ethanol): slightly soluble
solubility in water ([4]; water): insoluble
